Reference: patent publication US4624953A, “1-piperazinocarboxylates and pharmaceutical compositions containing them” (priority 1981, dated 1986)
Like-named read-outs stand apart in the source and are kept apart here.

Columns and labels:
[1] = test system: isolation-induced aggressive behaviour; test: Isolation-induced aggressive behaviour test; assay type: in vivo, male NMRI mice; details: Mus musculus, sc, read-out: ED50, isolation induced aggressive behaviour
Excerpt: Male mice subjected to prolonged isolation develop aggressive behaviour against each other when paired (Yen, C. Y. et al., Arch. Int. Pharmacodyn. 123, 179, (1959); Valzelli, L., Adv. Pharmacol. 5, 79 (1967)). […] The clinical correlation of this test indicates tranquillizing and anxiolytic activities as well as antiaggressive properties as such (Duncan, R. L. et al., J. Med. Chem. 13, 1 (1970)).
This type of aggression is interesting because it is known that this kind of emotional behaviour might be located in limbic structures in the brain (MacLean, P. D., Psychosom. Med. 11, 338 (1949)).
Every week male NMRI mice, weighing 20-22 g, were isolated in Makrolon cages for three weeks with diet and water ad libitum. A piece of cardboard was placed between the cages to prevent visual contact.
To test aggressiveness the mice were paired in a neutral area, a beaker (14 cm high and diameter 14 cm). A pair is considered aggressive if both the animals show clear signs of fighting within 5 min. This fighting is characterized by biting and vocalization. As soon as fighting is seen, the mice are separated and brought to their home cage. […] Animals showing no aggression are discarded. […] The test substance is administered s.c. (0.2-0.4 ml/20 g). The mice are paired 0.5 h after the injection for trials of 5 min. duration.
The ED50 -value (mg/kg) reported is the dose inhibiting aggressive behaviour among 50 percent of the pairs 0.5 hour after drug administration.

[2] = test system: isolation-induced aggressive behaviour; details: background statement on clinically used drugs; cited from earlier work
[3] = test system: conditioned avoidance response; test: Conditioned avoidance response (CAR), shuttle box; assay type: in vivo, female rats; details: Rattus norvegicus, sc
Procedure: The effect of the test compounds on CAR was evaluated in a shuttle box, manufactured by Ugo Basile, Italy. The female rats, weighing 150 g, were trained to avoid an electric shock (unconditioned stimulus--US) by escaping from one compartment to the other when the light from a 15 W lamp switched on (conditions stimulus--CS). When they responded to the CS, a conditioned response (CR) was considered to have been elicited.
Rats showing a stable CR of more than 80% after a three weeks' training program were used in the experiments. Groups of six rats were subcutaneously administered with various doses of the test compounds. 11/2 and 4 hours after the administration each rat was placed in the experimental box and the effect on CR was evaluated.
The mechanisms regulating conditioned responses are very complex. Both catecholaminergic and hormonal factors are of importance. [drawing 13]

[4] = 0.5 h after administration, dose inhibiting aggressive behaviour among 50 percent of the pairs
[5] = 1.5 hr after administration, dose inhibiting CR in 50% of the animals, read-out: ED50, conditioned avoidance behaviour, 1.5 hr
[6] = 4 hr after administration, dose inhibiting CR in 50% of the animals, read-out: ED50, conditioned avoidance behaviour, 4 hr

| SMILES | ED50 [1, 4] | ED50 [3, 5] | ED50 [3, 6] | further results |
| --- | --- | --- | --- | --- |
| CN(C)CCC=C1c2ccccc2CCc2ccccc21 [Amitriptyline] | 5 mg/kg | – | – | – |
| CN1C(=O)CN=C(c2ccccc2)c2cc(Cl)ccc21 [Diazepam] | – | – | – | activity on isolation-induced aggressive behaviour (in words) [2]: active on this kind of aggressive behaviour |
| CSc1ccc2c(c1)N(CCC1CCCCN1C)c1ccccc1S2 (centres unmarked) [Thioridazine] | 5 mg/kg | 41 mg/kg | 40 mg/kg | – |
| COC(=O)N1CCN(CCCC(c2ccc(F)cc2)c2ccc(F)cc2)CC1.Cl [I (a), 1-Carbomethoxy-4-[4,4-bis(p-fluorophenyl)butyl]piperazine hydrochloride] | 6 mg/kg | 45 mg/kg | 12 mg/kg | – |
| CN(C)CCCN1c2ccccc2Sc2ccc(Cl)cc21 [Chlorpromazine] | – | – | – | ED50 ([3]; 1.5 h, read-out: ED50, conditioned avoidance behaviour, 1.5 hr): 3.5 mg/kg; ED50 ([3]; 4 h, read-out: ED50, conditioned avoidance behaviour, 4 hr): 5.2 mg/kg; ED50 ([1]; 0.5 h): 1.4 mg/kg |
